Results reported in patent US4226878A, “Imidazole derivative” (Kissei Pharmaceutical Co., Ltd., priority 1978, dated 1980).
Where a name gives a salt, the structure may show the parent alone.

Key:
[1] = tested on: thromboxane synthetase; conditions: literature reports; cited from earlier work
[2] = molecular target: T1, thromboxane synthetase from rabbit platelet microsomes (Oryctolagus cuniculus, UniProt G1TAZ9); test: inhibition of thromboxane synthetase from rabbit platelet microsomes (conversion of prostaglandin H2 into thromboxane B2); assay type: biochemical; conditions: read-out: molar concentration producing a 50% inhibition of thromboxane synthetase
T1 construct: thromboxane synthetase from rabbit platelet microsomes; from tissue; host or cells: rabbit platelet microsomes
T1 sequence (G1TAZ9 1-530): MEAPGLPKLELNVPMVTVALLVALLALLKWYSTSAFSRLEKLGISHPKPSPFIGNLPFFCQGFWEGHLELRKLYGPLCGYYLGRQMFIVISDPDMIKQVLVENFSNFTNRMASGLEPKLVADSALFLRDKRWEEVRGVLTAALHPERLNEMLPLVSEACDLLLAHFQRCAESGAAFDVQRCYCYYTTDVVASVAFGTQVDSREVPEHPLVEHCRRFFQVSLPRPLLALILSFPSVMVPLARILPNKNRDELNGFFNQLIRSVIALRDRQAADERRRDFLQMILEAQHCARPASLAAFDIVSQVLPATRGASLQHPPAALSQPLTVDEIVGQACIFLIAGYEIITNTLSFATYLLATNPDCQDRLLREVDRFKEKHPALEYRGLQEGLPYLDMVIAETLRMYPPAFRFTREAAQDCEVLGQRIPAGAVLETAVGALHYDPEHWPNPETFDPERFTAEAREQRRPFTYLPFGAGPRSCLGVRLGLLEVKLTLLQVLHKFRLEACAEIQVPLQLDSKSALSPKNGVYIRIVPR
Description: [Nature, Vol. 261, No. 6, 17-, (1976)].
The inhibitory action of the imidazole derivatives of this invention can be confirmed by determination of thromboxane B2 produced by thromboxane synthetase from prostaglandin H2 via thromboxane A2.

In the case of `CC(C)c1ccccc1-n1ccnc1` [1-(2-isopropylphenyl)imidazole], the “inhibitory effect on thromboxane synthetase (in words, prior art)” value (from here on “inhibitory effect … (in words, prior art)”) [1] is given as “strong inhibitory effect”.

For `COC(=O)CCCCCCn1ccnc1` [1-(6-methoxycarbonylhexyl) imidazole], the “inhibitory effect … (in words, prior art)” value [1] is listed as “inhibitory effect”.

For `c1ccc(Cn2ccnc2)cc1` [1-benzylimidazole], the “inhibitory effect … (in words, prior art)” value [1] is given as “strong inhibitory effect”.

For `CCCCCCCCCCn1ccnc1` [1-decylimidazole], the “inhibitory effect … (in words, prior art)” value [1] is listed as “strong inhibitory effect”.

In the case of `CCCCCCCCCn1ccnc1` [1-nonylimidazole], the “inhibitory effect … (in words, prior art)” value [1] is listed as “strong inhibitory effect”.

Work on `CC(=Cc1ccc(Cn2ccnc2)cc1)C(=O)O` [P-(1-imidazolylmethyl)-α-methylcinnamic acid hydrochloric acid salt] yielded an IC50 [2] of 4 nM.

In the case of `c1c[nH]cn1` [imidazole], the “inhibitory effect … (in words, prior art)” value [1] is given as “very weak inhibitory effect”.
